Counter-ions that a name gives are not always drawn. Like-named read-outs stand apart in the source and are kept apart here.
Experiments:
5-HTP = 5-HTP antagonism: forepaw treading, flat body posture and head twitches induced by 5-hydroxytryptophan; format: in vivo, rat (female Wistar); settings: Rattus norvegicus
Procedure: 4 Female Wistar rats (270±30 g), fasted for approximately 24 hours, are used. At the beginning of the test, they are administered the "control" solution or solutions of 5-hydroxytryptophan at a dose of 320 mg/kg. The animals are then placed under observation in transparent cages. Three parameters are assessed in the study: "forepaw treading", "flat body posture" and "head twitches". "Forepaw treading" corresponds to a pedalling motion of the forelimbs. This parameter is measured 80 minutes after the administration of 1,5-hydroxytryptophan and during a ten-minute observation period. This time is divided into 5- second periods and, if a movement is observed in this period, a score of 1 is assigned, the maximum score being […] for the ten minutes of observation and for each animal. The parameter "head twitches" relates to the number of twitches of the head of the animals observed during 10 minutes. This parameter is assessed 90 minutes after the administration of 1,5-hydroxytryptophan and during a 10- minute period. "Flat body posture" corresponds to a flattening of the body which lasts for more than 10 minutes. This parameter is assessed throughout the period of observation of the animals.

5-HT2 = biological target: T1, 5-HT2 (Rattus norvegicus, UniProt P14842); experiment: 5-HT2 antagonism: inhibition of hypertensive response to 5-hydroxytryptamine; format: in vivo, rat (male Sprague-Dawley); settings: iv, 10 min, i.v., cumulative doses, 5-hydroxytryptamine 100 μg/kg i.v., prazosin pretreatment, read-out: ID50, dose inhibiting the hypertensive response by 50%
T1 construct: from tissue; host or cells: whole anaesthetised male Sprague-Dawley rat in vivo (vasculature; arterial blood pressure recorded)
T1 sequence (P14842 whole entry): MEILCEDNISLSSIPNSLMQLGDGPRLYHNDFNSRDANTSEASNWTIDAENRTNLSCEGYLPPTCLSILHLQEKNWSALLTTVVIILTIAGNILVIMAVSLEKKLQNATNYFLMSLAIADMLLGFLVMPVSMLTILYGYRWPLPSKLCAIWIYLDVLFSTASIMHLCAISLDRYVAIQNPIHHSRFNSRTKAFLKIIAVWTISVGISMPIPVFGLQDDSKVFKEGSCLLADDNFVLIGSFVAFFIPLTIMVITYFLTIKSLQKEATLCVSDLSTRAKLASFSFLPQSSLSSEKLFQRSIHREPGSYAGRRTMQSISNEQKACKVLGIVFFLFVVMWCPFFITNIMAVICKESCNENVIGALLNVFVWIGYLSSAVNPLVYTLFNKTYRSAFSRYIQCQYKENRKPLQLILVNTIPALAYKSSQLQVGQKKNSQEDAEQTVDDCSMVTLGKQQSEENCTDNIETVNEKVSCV
Procedure: Male Sprague-Dawley rats (350-400 g) are anesthetized i.p. with pentobarbital (45 mg/kg). The trachea is cannulated and the animals are subjected to artificial respiration. The vagus nerves are sectioned. A catheter is placed in a carotid artery to record the arterial blood pressure. A second catheter is placed in the vein of the penis and is used for the injections. The animals' temperature is taken and is maintained at 37° C. The rats are pretreated with d-tubocurarine (1 mg/kg i.v.) an prazosin (1 mg/kg i.v.). 5-Hydroxytryptamine is injected i.v. at a dose of 100 μg/kg twice, separated by an interval of 10 minutes, so as to determine the rise in the systolic arterial blood pressure of each rat 10 minutes later, the compounds of the invention are injected at the lowest dose and injection of 5-hydroxytryptamine is performed again 10 minutes later. 3 or 4 cumulative doses of the compounds of the invention are tested in the same manner. The percentages of the hypertensive response which are obtained at the different doses are calculated in order to determine the ID50, the dose inhibiting the hypertensive response by 50%.

α1 receptor = settings: in words; cited from earlier work
[1] = sc, subcutaneously, 5-hydroxytryptophan 320 mg/kg, Table IV, read-out: ED50 FBP (flat body posture)
[2] = sc, subcutaneously, 5-hydroxytryptophan 320 mg/kg, Table IV, read-out: ED50 FPT (forepaw treading)
[3] = sc, read-out: ED50 HT (head twitches)

Structure (SMILES) | ED50 (5-HTP; [1]) [mg/kg] | ED50 (5-HTP; [2]) [mg/kg] | ED50 (5-HT2) [mg/kg] | ED50 (5-HTP; [3]) [mg/kg] | ED50 (5-HTP; read-out: ED50 HT (head twitches)) [mg/kg] | ED50 (5-HTP; Table V, route not given, 5-hydroxytryptophan 320 mg/kg, read-out: ED50 FBP (flat body posture)) [mg/kg] | ED50 (5-HTP; Table V, route not given, 5-hydroxytryptophan 320 mg/kg, read-out: ED50 FPT (forepaw treading)) [mg/kg] | α1 antagonist activity (α1 receptor)
Cl.O=C(c1ccc(F)cc1)C1CCN(CCCCN2C(=O)CN(Cc3ccccc3F)CC2=O)CC1 [EXAMPLE 4, 1-{4-[4-(4-Fluorobenzoyl)piperidino]butyl}-4-(2-fluorobenzyl) piperazine 2,6-dione hydrochloride] | 10 | 5 | – | – | – | – | – | –
O=C(CC1CCCN(CCCN2C(=O)CN(Cc3ccccc3F)CC2=O)C1)c1ccc(F)cc1 (stereo not shown) [EXAMPLE 6, 4-(2-Fluorobenzyl)-1-{3-[3-4-fluorophenacyl)piperidino]propyl)}piperazine 2,6-dione ditartrate] | 1.25 | 2.5 | 0.0037 | – | – | – | – | –
COc1cccc(CN2CC(=O)N(CCCN3CCC(C(=O)c4ccc(F)cc4)CC3)C(=O)C2)c1.Cl [EXAMPLE 18, 1-{3-[4-(4-Fluorobenzoyl)piperidino]propyl}-4-(3-methoxybenzyl) piperazine 2,6-dione hydrochloride] | 2.5 | 5 | – | – | – | – | – | –
Cc1nc2c(C#N)ncn2c(O)c1CCN1CCC(C(=O)c2ccc(F)cc2)CC1 [EXAMPLE 1, 8-Cyano-3-{2-[4-(4-fluorobenzoyl)piperidino]ethyl}-4-hydroxy-2-methylimidazo[l,5-a]pyrimidine hydrochloride] | 0.04 | 40 | 0.0045 | > 40 | – | – | – | –
Cl.Cl.O=C(c1ccc(F)cc1)C1CCN(CCCN2CCN(c3ncccn3)CC2)CC1 [EXAMPLE 7, 1-{3-[4-(4-Fluorobenzoyl)piperidino]propyl}-4-(2-pyrimidinyl) -piperazine dihydrochloride] | 1.25 | 1.25 | – | > 10 | – | – | – | –
O=C(CC1CCN(CCn2c(=O)[nH]c3ccccc3c2=O)C1)c1ccc(F)cc1 (stereo not shown) [EXAMPLE 10, 2,4-Dioxo-3-{2-[3-(4-fluorophenacyl)-1-pyrrolidinyl]ethyl}-1,2,3,4-tetrahydrocuinazoline hydrochloride] | 0.16 | 0.31 | 0.0054 | 2.5 | – | – | – | –
O=C(CC1CCN(CCCN2C(=O)CN(Cc3ccccc3F)CC2=O)C1)c1ccc(F)cc1.O=C(O)C(O)C(O)C(=O)O (stereo not shown) [EXAMPLE 5, 4-(2-Fluorobenzyl)-1-{3-[3-(4-fluorophenacyl)-1-pyrrolidinyl]propyl}piperazine 2,6-dione tartrate] | 0.31 | 10 | – | > 10 | – | – | – | –
Cc1nc2c(C(N)=O)ncn2c(O)c1CCN1CCC(C(=O)c2ccc(F)cc2)CC1 [EXAMPLE 8, 8-Carbamoyl-3-{2-[4-(4-fluorobenzoyl)piperidino]-ethyl}-4-hydroxy-2-methylimidazol[1,5-a]pyrimidine hydrochloride] | – | – | 0.018 | – | > 10 | 0.63 | 10 | –
O=C(c1ccc(F)cc1)C1CCN(CCn2c(=O)[nH]c3ccccc3c2=O)CC1 [KETANSERIN] | – | – | – | – | – | – | – | devoid of α1 antagonist activity
Cc1cccc(CN2CC(=O)N(CCCN3CCC(C(=O)c4ccc(F)cc4)CC3)C(=O)C2)c1.Cl [EXAMPLE 15, 1-{3-[4-(4-Fluorobenzoyl)piperidino]propyl}-4-(3-methylbenzyl) piperazine 2,6-dione hydrochloride] | 2.5 | 10 | – | 5 | – | – | – | –
Cc1nc2c(C(N)=O)ncn2c(O)c1CCN1CCC(CC(=O)c2ccc(F)cc2)C1.Cl (stereo not shown) [EXAMPLE 9, 8-Carbamoyl-3-{2-[3-(4-fluorophenacyl)-1-pyrrolidinyl]ethyl}-4-hydroxy-2-methylimidazo[1,5-a]pyrimidine hydrochloride] | – | – | 0.01 | – | – | – | – | –
Cl.Cl.O=C(c1ccc(F)cc1)C1CCN(CCN2CCN(c3ncccn3)CC2)CC1 [EXAMPLE 21, 4-{2-[4-(4-Fluorobenzoyl)piperidino]ethyl}-1-(2-pyrimidinyl) piperazine dihydrochloride] | 0.63 | 2.5 | – | 1.25 | – | – | – | –
Cl.O=C(c1ccc(F)cc1)C1CCN(CCCN2C(=O)CN(Cc3ccccn3)CC2=O)CC1 [EXAMPLE 3, 1-{3-[4-(4-Fluorobenzoyl)piperidino]propyl}-4-(2-pyridylmethyl) piperazine 2,6-dione hydrochloride] | 0.31 | 1.25 | – | 5 | – | – | – | –
Cl.O=C(c1ccc(F)cc1)C1CCN(CCCN2C(=O)CN(Cc3ccccc3F)CC2=O)CC1 [EXAMPLE 2, 1-{3-[4-(4-Fluorobenzoyl)piperidino]propyl}-4-(2-fluorobenzyl) piperazine 2,6-dione hydrochloride] | 0.31 | 10 | 0.014 | 5 | – | – | – | –

Source: US5077288A, “4-fluorobenzoic compounds with 5-HT2 - and α1 -antagonistic activities” (Adir et Compagnie, priority 1989, dated 1991)
